Test results published in patent US12545639B2, “3-substituted phenylamidine compounds, preparation and use thereof” (PI INDUSTRIES LTD., priority 2019, dated 2026).

Experiments:
Pyricularia oryzae = test: microbe, parasite or virus in culture; format: cell-based; conditions: 168 h, read-out: control compared to the untreated check (radial growth)
Rhizoctonia solani = Rhizoctonia solani (rice sheath blight/potato black scurf) in vitro test, radial growth on potato dextrose agar; format: cell-based; conditions: 168 h, 300 ppm in potato dextrose agar, 25° C., 60% relative humidity, seven days, read-out: control compared to the untreated check (radial growth)
Botrytis cinerea = Botrytis cinerea (gray mold) in vitro test, radial growth on potato dextrose agar; format: cell-based; conditions: 168 h, 300 ppm in potato dextrose agar, 22° C., 90% relative humidity, seven days, read-out: control compared to the untreated check (radial growth)
Alternaria solani = Alternaria solani (early blight of tomato/potato) in vitro test, radial growth on potato dextrose agar; format: cell-based; conditions: 168 h, 300 ppm in potato dextrose agar, 25° C., 60% relative humidity, seven days, read-out: control compared to the untreated check (radial growth)
Colletotrichum capsici = Colletotrichum capsici (anthracnose) in vitro test, radial growth on potato dextrose agar; format: cell-based; conditions: Colletotrichum truncatum, 168 h; 300 ppm in potato dextrose agar; 25° C., 60% relative humidity, seven days; read-out: control compared to the untreated check (radial growth)
[1] = test system: Septoria lycopersici/Corynespora cassicola (CORYCA); test: Septoria lycopersici/Corynespora cassicola (CORYCA) (leaf spot of tomato) in vitro test, radial growth on potato dextrose agar; format: cell-based; conditions: 168 h, 300 ppm in potato dextrose agar, 25° C., 70% relative humidity, seven days, read-out: control compared to the untreated check (radial growth)
Fusarium culmorum = Fusarium culmorum (foot rot of cereals) in vitro test, radial growth on potato dextrose agar; format: cell-based; conditions: 168 h, 300 ppm in potato dextrose agar, 25° C., 60% relative humidity, seven days, read-out: control compared to the untreated check (radial growth)
Method: Compounds were dissolved in 0.3% dimethyl sulfoxide and then added to potato dextrose agar medium just prior to dispensing it into petri dishes. 5 mL medium with the compound in the desired concentration was dispensed into 60 mm sterile petri-plates. After solidification each plate was seeded with a 5 mm size mycelial disc taken from the periphery of an actively growing virulent culture plate. Plates were incubated in growth chambers at 25° C. temperature and 60% relative humidity for seven days and then the radial growth was measured and compared to that of the untreated control.

Phakopsora pachyrhizi = Phakopsora pachyrhizi test in soybean, preventive, in vivo on plants; conditions: in Glycine max, read-out: Efficacy (% control), disease severity compared to the untreated check

CCN(C)C=Nc1cc(C)cc(Cc2ccccc2Cl)c1Cl [Compound 13, N′-(2-chloro-3-(2-chlorobenzyl)-5-methylphenyl)-N-ethyl-N-methylformimidamide]
≥ 70%: inhibition of growth at 300 ppm (Pyricularia oryzae) | inhibition of growth at 300 ppm (Rhizoctonia solani) | inhibition of growth at 300 ppm (Botrytis cinerea) | inhibition of growth at 300 ppm (Alternaria solani) | inhibition of growth at 300 ppm (Colletotrichum capsici) | inhibition of growth at 300 ppm [1] | inhibition of growth at 300 ppm (Fusarium culmorum)

CCN(C)C=Nc1cc(C)cc(Nc2ncc(Cl)cc2C)c1Cl [Compound 112, N′-(2-chloro-3-((5-chloro-3-methylpyridin-2-yl)amino)-5-methylphenyl)-N-ethyl-N-methylformimidamide]
≥ 70%: inhibition of growth at 300 ppm (Pyricularia oryzae) | inhibition of growth at 300 ppm (Alternaria solani) | inhibition of growth at 300 ppm (Colletotrichum capsici) | inhibition of growth at 300 ppm [1] | inhibition of growth at 300 ppm (Fusarium culmorum)

CCN(C)C=Nc1cc(Cl)cc(Nc2ccc(OC)cc2)c1C [Compound 162, N′-(5-chloro-3-((4-methoxyphenyl)amino)-2-methylphenyl)-N-ethyl-N-methylformimidamide]
≥ 70%: inhibition of growth at 300 ppm (Pyricularia oryzae) | inhibition of growth at 300 ppm (Rhizoctonia solani) | inhibition of growth at 300 ppm (Alternaria solani) | inhibition of growth at 300 ppm (Colletotrichum capsici) | inhibition of growth at 300 ppm [1] | inhibition of growth at 300 ppm (Fusarium culmorum)

CCN(C)C=Nc1cc(C)cc(Nc2ccc(F)c(OC)c2)c1Cl [Compound 275, N′-(2-chloro-3-((4-fluoro-3-methoxyphenyl)amino)-5-methylphenyl)-N-ethyl-N-methylformimidamide]
≥ 70%: inhibition of growth at 300 ppm (Pyricularia oryzae) | inhibition of growth at 300 ppm (Rhizoctonia solani) | inhibition of growth at 300 ppm (Alternaria solani) | inhibition of growth at 300 ppm (Colletotrichum capsici) | inhibition of growth at 300 ppm [1] | inhibition of growth at 300 ppm (Fusarium culmorum) | pest or weed control at 500 ppm (Phakopsora pachyrhizi)

CCN(C)C=Nc1cc(C)cc(Cc2ccc(C)cc2)c1C [Compound 2, N′-(2,5-dimethyl-3-(4-methylbenzyl)phenyl)-N-ethyl-N-methylformimidamide]
≥ 70%: inhibition of growth at 300 ppm (Pyricularia oryzae) | inhibition of growth at 300 ppm (Rhizoctonia solani) | inhibition of growth at 300 ppm (Botrytis cinerea) | inhibition of growth at 300 ppm (Alternaria solani) | inhibition of growth at 300 ppm (Colletotrichum capsici) | inhibition of growth at 300 ppm [1] | inhibition of growth at 300 ppm (Fusarium culmorum)

CCN(C)C=Nc1cc(C)cc(Cc2cccc(F)c2)c1C [Compound 5, N-ethyl-N′-(3-(3-fluorobenzyl)-2,5-dimethylphenyl)-N-methylformimidamide]
≥ 70%: inhibition of growth at 300 ppm (Pyricularia oryzae) | inhibition of growth at 300 ppm (Rhizoctonia solani) | inhibition of growth at 300 ppm (Botrytis cinerea) | inhibition of growth at 300 ppm (Alternaria solani) | inhibition of growth at 300 ppm (Colletotrichum capsici) | inhibition of growth at 300 ppm [1] | inhibition of growth at 300 ppm (Fusarium culmorum)

CCN(C)C=Nc1cc(C)cc(Nc2ccc(C(C)(C)C)cc2)c1Cl [Compound 25, N′-(3-((4-(tert-butyl)phenyl)amino)-2-chloro-5-methylphenyl)-N-ethyl-N-methylformimidamide]
≥ 70%: inhibition of growth at 300 ppm (Pyricularia oryzae) | inhibition of growth at 300 ppm (Rhizoctonia solani) | inhibition of growth at 300 ppm (Botrytis cinerea) | inhibition of growth at 300 ppm (Alternaria solani) | inhibition of growth at 300 ppm (Colletotrichum capsici) | inhibition of growth at 300 ppm [1] | inhibition of growth at 300 ppm (Fusarium culmorum)

CCN(C)C=Nc1cc(C)cc(Cc2cccc(Cl)c2)c1C [Compound 3, N′-(3-(3-chlorobenzyl)-2,5-dimethylphenyl)-N-ethyl-N-methylformimidamide]
≥ 70%: inhibition of growth at 300 ppm (Pyricularia oryzae) | inhibition of growth at 300 ppm (Rhizoctonia solani) | inhibition of growth at 300 ppm (Botrytis cinerea) | inhibition of growth at 300 ppm (Alternaria solani) | inhibition of growth at 300 ppm (Colletotrichum capsici) | inhibition of growth at 300 ppm [1] | inhibition of growth at 300 ppm (Fusarium culmorum)

CCN(C)C=Nc1cc(C)cc(Cc2ccccc2C)c1C [Compound 4, N′-(2,5-dimethyl-3-(2-methylbenzyl)phenyl)-N-ethyl-N-methylformimidamide]
≥ 70%: inhibition of growth at 300 ppm (Pyricularia oryzae) | inhibition of growth at 300 ppm (Rhizoctonia solani) | inhibition of growth at 300 ppm (Botrytis cinerea) | inhibition of growth at 300 ppm (Alternaria solani) | inhibition of growth at 300 ppm (Colletotrichum capsici) | inhibition of growth at 300 ppm [1] | inhibition of growth at 300 ppm (Fusarium culmorum)

CCN(C)C=Nc1cc(F)cc(Nc2cc(Cl)ccc2C)c1C [Compound 116, N′-(3-((5-chloro-2-methylphenyl)amino)-5-fluoro-2-methylphenyl)-N-ethyl-N-methylformimidamide]
≥ 70%: inhibition of growth at 300 ppm (Pyricularia oryzae) | inhibition of growth at 300 ppm (Alternaria solani) | inhibition of growth at 300 ppm (Colletotrichum capsici) | inhibition of growth at 300 ppm [1] | inhibition of growth at 300 ppm (Fusarium culmorum) | pest or weed control at 500 ppm (Phakopsora pachyrhizi)

CCN(C)C=Nc1cc(Cl)cc(Cc2ccccc2C)c1C [Compound 88, N′-(5-chloro-2-methyl-3-(2-methylbenzyl)phenyl)-N-ethyl-N-methylformimidamide]
≥ 70%: inhibition of growth at 300 ppm (Pyricularia oryzae) | inhibition of growth at 300 ppm (Rhizoctonia solani) | inhibition of growth at 300 ppm (Botrytis cinerea) | inhibition of growth at 300 ppm (Alternaria solani) | inhibition of growth at 300 ppm (Colletotrichum capsici) | inhibition of growth at 300 ppm (Fusarium culmorum) | pest or weed control at 500 ppm (Phakopsora pachyrhizi)

CCN(C)C=Nc1cc(C)cc(N(C)c2cc(C)ccc2Cl)c1Cl [Compound 120, N′-(2-chloro-3-((2-chloro-5-methylphenyl)(methyl)amino)-5-methylphenyl)-N-ethyl-N-methylformimidamide]
≥ 70%: inhibition of growth at 300 ppm (Pyricularia oryzae) | inhibition of growth at 300 ppm (Alternaria solani) | inhibition of growth at 300 ppm (Colletotrichum capsici) | inhibition of growth at 300 ppm [1] | inhibition of growth at 300 ppm (Fusarium culmorum) | pest or weed control at 500 ppm (Phakopsora pachyrhizi)

CCN(C)C=Nc1cc(Cl)cc(Cc2ccc(C)cc2)c1C [Compound 105, N′-(5-chloro-2-methyl-3-(4-methylbenzyl)phenyl)-N-ethyl-N-methylformimidamide]
≥ 70%: inhibition of growth at 300 ppm (Pyricularia oryzae) | inhibition of growth at 300 ppm (Rhizoctonia solani) | inhibition of growth at 300 ppm (Botrytis cinerea) | inhibition of growth at 300 ppm (Alternaria solani) | inhibition of growth at 300 ppm (Colletotrichum capsici) | inhibition of growth at 300 ppm (Fusarium culmorum) | pest or weed control at 500 ppm (Phakopsora pachyrhizi)

CCN(C)C=Nc1cc(C)cc(Cc2ccccc2C)c1Cl [Compound 12, N′-(2-chloro-5-methyl-3-(2-methylbenzyl)phenyl)-N-ethyl-N-methylformimidamide]
≥ 70%: inhibition of growth at 300 ppm (Pyricularia oryzae) | inhibition of growth at 300 ppm (Rhizoctonia solani) | inhibition of growth at 300 ppm (Botrytis cinerea) | inhibition of growth at 300 ppm (Alternaria solani) | inhibition of growth at 300 ppm (Colletotrichum capsici) | inhibition of growth at 300 ppm [1] | inhibition of growth at 300 ppm (Fusarium culmorum)

CCN(C)C=Nc1cc(F)cc(Nc2ccc(F)c(F)c2)c1C [Compound 73, N′-(3-((3,4-difluorophenyl)amino)-5-fluoro-2-methylphenyl)-N-ethyl-N-methylformimidamide]
≥ 70%: inhibition of growth at 300 ppm (Pyricularia oryzae) | inhibition of growth at 300 ppm (Rhizoctonia solani) | inhibition of growth at 300 ppm (Botrytis cinerea) | inhibition of growth at 300 ppm (Alternaria solani) | inhibition of growth at 300 ppm (Colletotrichum capsici) | inhibition of growth at 300 ppm [1] | inhibition of growth at 300 ppm (Fusarium culmorum)

CCN(C)C=Nc1cc(Cl)cc(Nc2cccc(Cl)c2)c1C [Compound 163, N′-(5-chloro-3-((3-chlorophenyl)amino)-2-methylphenyl)-N-ethyl-N-methylformimidamide]
≥ 70%: inhibition of growth at 300 ppm (Pyricularia oryzae) | inhibition of growth at 300 ppm (Rhizoctonia solani) | inhibition of growth at 300 ppm (Botrytis cinerea) | inhibition of growth at 300 ppm (Alternaria solani) | inhibition of growth at 300 ppm (Colletotrichum capsici) | inhibition of growth at 300 ppm [1] | inhibition of growth at 300 ppm (Fusarium culmorum)
